Experiments:
[1] = test system: blue light-induced retinal atrophy; test: SD-OCT quantitative analysis of retina layers, blue light-induced macular disease model; type: in vivo, C57BL/6 mice; settings: for RPE layer thickness compared with the BL group / ONL (outer nuclear layer) thickness compared with the BL group: Day 35, p<0.05
Procedure: The C57BL/6 mice, which weighed between 23 and 25 g, were divided into seven groups randomly. In each group, the six mice induced by blue light successfully were incorporated in experiments. The samples dissolved in deuterium-depleted water (DDW) were fed to mice through oral tubes once a day. The groups were named and introduced as follows: • (1) Solvent not classified group (NC): The mice were fed with 0.2 ml deuterium-depleted water (DDW) through tubes; • (2) Negative control group (Blue light (BL)): The mice were fed with 0.2 ml deuterium-depleted water (DDW) through tubes and exposed to blue light; • (3) Low-dosage Y7 probiotics group […]): The mice were fed with low-dosage Y7 probiotics (probiotic counts of 1.0×10^8 CFU/ml dissolved in 0.2 ml DDW per day) and exposed to blue light; • (4) High-dosage Y7 probiotics group […]): The mice were fed with high-dosage Y7 probiotics (probiotic counts of 1.0×10^9 CFU/ml dissolved in 0.2 ml DDW per day) and exposed to blue light; • (5) Positive control group (lutein (LU)): The mice were fed with lutein and exposed to blue light. The recommended human dosage of lutein is 30 mg. The mouse cage (48×25×20 cm) placed inside a stainless ventilated box was equipped with blue light boards as blue light sources around and above. In the experiment of animals exposed to blue light, six-week-old mice staying in the mouse cage were fed with drinking water as well as fodders and exposed to 400 Lux blue light illumination under the light-dark cycle of 12-hour light and 12-hour dark. The experiment was aimed at causing mice' late dry macular disease induced by chronic light injuries for simulating a human being's macular disease after long-term exposure to short-wavelength blue light from 3C products in daily life. The OCT image system (Phoenix Research Laboratories, San Ramon, CA) used in the experiment is constructed based on the principle of spectral-domain optical coherence tomography. In the system, the computed tomography is divided into five layers, that is, Layer 1: the distance from the Ganglion cell layer (GY7L) to the outer plexiform layer (OPL); Layer 2: outer nuclear layer (ONL); Layer 3: the distance between the inner segment (IS) and the outer segment (OS); Layer 4: the distance from IS/OS to RPE; Layer 5: the total retinal thickness from the nerve fiber layer (NFL) to the lower edge of the RPE layer. The five layers were taken for the quantitative analysis by InSight XL (Phoenix Research Laboratories, San Ramon, CA). SD-OCT was used in checking lesions after exposure to blue light such as retinal atrophy and edema on a retina structure. According to the quantitative SD-OCT analysis, changes in all layers of a retina during the experiment were clearly inspected and no lesion like atrophy and edema was detected in any group before the experiment, as show in FIG. 5. Atrophy at the outer nuclear layer (ONL) of mice in the BL group was observed on Day 35, as shown by the arrow in FIG. 3a.

[2] = test system: photosensitivity of a retina; test: scotopic electroretinography (ERG), blue light-induced macular disease model; type: in vivo, C57BL/6 mice
Procedure: The C57BL/6 mice, which weighed between 23 and 25 g, were divided into seven groups randomly. In each group, the six mice induced by blue light successfully were incorporated in experiments. The samples dissolved in deuterium-depleted water (DDW) were fed to mice through oral tubes once a day. The groups were named and introduced as follows: • (1) Solvent not classified group (NC): The mice were fed with 0.2 ml deuterium-depleted water (DDW) through tubes; • (2) Negative control group (Blue light (BL)): The mice were fed with 0.2 ml deuterium-depleted water (DDW) through tubes and exposed to blue light; • (3) Low-dosage Y7 probiotics group […]): The mice were fed with low-dosage Y7 probiotics (probiotic counts of 1.0×10^8 CFU/ml dissolved in 0.2 ml DDW per day) and exposed to blue light; • (4) High-dosage Y7 probiotics group […]): The mice were fed with high-dosage Y7 probiotics (probiotic counts of 1.0×10^9 CFU/ml dissolved in 0.2 ml DDW per day) and exposed to blue light; • (5) Positive control group (lutein (LU)): The mice were fed with lutein and exposed to blue light. The recommended human dosage of lutein is 30 mg. The mouse cage (48×25×20 cm) placed inside a stainless ventilated box was equipped with blue light boards as blue light sources around and above. In the experiment of animals exposed to blue light, six-week-old mice staying in the mouse cage were fed with drinking water as well as fodders and exposed to 400 Lux blue light illumination under the light-dark cycle of 12-hour light and 12-hour dark. The experiment was aimed at causing mice' late dry macular disease induced by chronic light injuries for simulating a human being's macular disease after long-term exposure to short-wavelength blue light from 3C products in daily life. The mydriatic agent, Atropine (0.125%), was distilled into mice' eyes for mydriasis in advance. Then, mice were anesthetized with Zoletil (40 mg/kg) and Xylazine (10 mg/kg) through intraperitoneal (IP); 2% Methocel gel as a lubricant was distilled into eyes of a deeply anesthetized mouse having placed on a clean bench. The ERG analysis was enabled with the electrodes installed completely. A mouse was stimulated with single excitation light for collection of ERG from which a negative a-wave and a positive b-wave were generated. For the ERG analysis, the excitation time was defined as the period from the initial time of excitation light emitted to the time of the a-wave (b-wave) peak detected; the amplitude of a-wave was defined as the amplitude difference between the background ERG value at the initial time of excitation light emitted and the ERG value of the a-wave peak; the amplitude of b-wave was defined as the amplitude difference between the ERG value of the a-wave peak and the ERG value of the b-wave peak. Any change observed in the excitation time or an amplitude referred to functions of retinal cells normal or abnormal. In electrophysiology, the a-wave denotes the healthy condition of photoreceptors at outside of a retina; the b-wave denotes the healthy condition of medial nerve cells of a retina such as bipolar cells and horizontal cells; the c-wave denotes the healthy condition of retinal pigment epithelium (RPE) on a retina. In the experiment, the scotopic electroretinography (ERG) was used in inspecting influence of exposure to blue light on photosensitivity of a mouse's retina. When light was received by a mouse's eyes, opsins and 11-cis-retinal on photoreceptor cells were combined with each other for a visual cycle such that a membrane potential difference was produced for transmission of ERG by the retinal neuron layer sequentially, that is, the electroretinographic physiological function test was conducted through recording peak potential differences generated by different nerve cells. […]

[3] = LU lutein group, ERG Day 35, p<0.05

Row | amplitude of c-waves compared with the BL group [2, 3] | amplitude of a-waves compared with the BL group ([2]; mouse, in vivo) | amplitude of a-waves compared with the LU group ([2]; mouse, in vivo) | amplitude of a-waves compared with the NC group ([2]; mouse, in vivo) | amplitude of c-waves compared with the BL group ([2]; mouse, in vivo) | Molecule | RPE layer thickness compared with the BL group ([1]; LU lutein group) | thickness of a retina after long-term exposure to blue light ([1]; lutein) | amplitude of b-waves, BL group versus treated group [2, 3] | ONL (outer nuclear layer) thickness compared with the BL group ([1]; Y7H high-dosage group) | RPE layer thickness compared with the BL group ([1]; Y7H high-dosage group) | ONL (outer nuclear layer) thickness compared with the BL group ([1]; Y7L low-dosage group) | RPE layer thickness compared with the BL group ([1]; Y7L low-dosage group) | thickness of a retina after long-term exposure to blue light ([1]; high-dosage Y7 probiotics) | thickness of a retina after long-term exposure to blue light ([1]; low-dosage Y7 probiotics) | amplitude of b-waves, BL group versus treated group ([2]; mouse, in vivo)
1 | significant difference |  |  |  |  | CC1=C[C@H](O)CC(C)(C)[C@H]1/C=C/C(C)=C/C=C/C(C)=C/C=C/C=C(C)/C=C/C=C(C)/C=C/C1=C(C)C[C@@H](O)CC1(C)C [lutein, reference compound] | significantly thicker | effectively maintained | BL group decreased significantly compared with the LU or Y7H group |  |  |  |  |  |  | 
2 |  | increased significantly | decreased significantly | decreased significantly | significant difference | Lactobacillus reuteri Y7 [Y7 probiotics] |  |  |  | significant difference | significantly thicker | significant difference | significantly thicker | effectively maintained | effectively maintained | BL group decreased significantly compared with the LU or Y7H group
